Data reported in patent publication US9029414B2, “Triterpenoid compounds and methods of use thereof” (Biotechnology Research Corporation, priority 2008, dated 2015).

Experiments:
TP receptor = TP receptor (Homo sapiens, UniProt P21731); experiment: Radioligand competition binding assay, TP; conditions: target Thromoboxanes A, compound at 10 μM in duplicate, read-out: % inhibition of control specific binding
Description: DA001 was further evaluated against 32 receptor binding assays. Radioligand competition assays were conducted whereby DA001 was tested at one concentration (10 uM) in duplicate. […] It could compete with the radioligand [^3H] PGE2 binding at the EP1 and EP4 receptors, and weakly competed with the EP2 and FP receptors.
To determine the targets of DA compounds, the compound was assessed in binding assays for the family of prostanoid receptors. Both compounds were tested at a single concentration (10 μM) in duplicate. DA001 and DA021 inhibit the ligand binding of prostaglandin E2 receptors EP1, EP2 and EP4 and moderately to prostaglandin (PGF) to its receptor (FP), but not prostaglandin I (PGI2), thromoboxane A and prostaglandin D2 to their receptors.

EP4 receptor = EP4 receptor (Homo sapiens, UniProt P35408); experiment: Cellular receptor functional assay (cAMP), EP4; assay type: cell-based; set-up: expressed in transfected cells; host or cells: CHO cells; conditions: for Antagonist effect, cAMP measurement: in presence of PGE2
Description: FIG. 13. […] A: Cellular functional assay for EP2; B: Cellular functional assay for […].
To determine whether the inhibitory effect of DA001 on the ligand binding to EP receptors results from agonist or antagonist activity, DA001 was evaluated at a single concentration (10 μM) on cellular-specific receptor functional assays. Upon ligand binding, the EP receptors are activated which leads to an increase in intracellular cyclic AMP.
DA001 (10 μM) was subjected to ligand binding assay with the human EP1 or EP4 receptor over-expressing CHO cells. Results are expressed as a percent of control specific agonist response [100-(measured specific response/control specific agonist response)×100] obtained in the presence of DA001.
DA001 was evaluated at 6 concentrations in cellular assays assessing receptor function. Upon ligand binding, the EP2 and EP4 receptor is activated which leads to an increase in intracellular cyclic AMP.
DA021 inhibits PGE2 ligand binding to EP1, EP2 and EP4 receptors. To determine whether the inhibitory effect is due to agonist or antagonist activity, DA021 was evaluated and compared at 1 concentration (30 uM) in cellular assays assessing receptor function. Upon ligand binding, the EP receptors are activated which leads to an increase in intracellular cyclic AMP.

[1] = system: MOG-induced IFN-γ in primary splenocytes; experiment: IFN-γ Quantikine ELISA in primary splenocytes of EAE mice; assay type: cell-based; conditions: for Reduction in IFN-γ, % Reduction: splenocytes of EAE mice dosed 100 mg/kg orally daily vs MOG + Vehicle; for IFN-γ, Average / level of IFN-γ: splenocytes of EAE mice dosed 100 mg/kg orally daily, exogenous MOG; for decrease of IFN-γ in response to exogenous compound: splenocytes of compound-treated EAE mice (100 mg/kg); for decrease of IFN-γ in response to exogenous compound / reduction in the amount of MOG-induced IFN-γ: exogenous compound 30 μM, MOG 25 μg/mL; for reduction in the amount of MOG-induced IFN-γ: splenocytes of vehicle-treated EAE mice, 48 hrs
Description: On day 21, EAE mice were sacrificed by cervical dislocation and spleens were removed aseptically. The removed spleens were then cut with sterilized scissors and strained through […] mesh (BD Bioscience) with a plunger of 5 mL syringe (BD Bioscience) in 9 mL of RPMI 1640 (Invitrogen) with 100 U/mL penicillin and 100 μg/mL streptomycin (Sigma). The cell mixture was then added to 9 mL of Lympholyte (Cedarlane Laboratories) for gradient separation of splenocytes from red bloods cells by centrifugation at 1500 g for 20 min. After the centrifugation, the lympholyte layer containing splenocytes were carefully removed and washed with 10 mL of RPMI 1640 at 800 g for 10 min for three times. The isolated splenocytes were seeded onto different plate format and cultured with RPMI 1640 medium (Invitrogen) supplement with 10% heat inactivated fetal bovine serum (Invitrogen) and 100 U/mL penicillin and 100 μg/mL streptomycin at 37° C. CO2 incubator.
Splenocytes from EAE mice were cultured at the density of 1×10^6 cells in 12-well plates (Falcon) in the absence or presence of the MOG peptide (25 μg/mL) (Hooke Laboratories), DA001 and DA021 (30 μM) with RPMI 1640 medium (Invitrogen) supplement with 10% heat inactivated fetal bovine serum (Invitrogen) and 100 U/mL penicillin and 100 μg/mL streptomycin (Sigma) for 48 h. After 48 h, the supernatants were collected by pelleting the cells at 300 g for 10 min at 4° C. 50 μL of the each sample was added to the microtiter plate provided by the manufacturer of the Quantikine ELISA assay kit (R and D systems). Additional 50 μL of assay diluents buffer was added and incubated at room temperature for 2 h. After the incubation, the supernatants were discarded and the cells were washed with wash buffer. 100 μL of conjugate was added to the cells and the plate was again incubated at room temperature for 2 h. After another washing, 100 μL of substrate solution was added followed by 30 min incubation at room temperature. Subsequently, 100 μL of stop solution was added to each well and the plate was read in 450 nm wavelength on a microplate reader (Dynex Revelation 2.2).
Cytokines are believed to be one of the key signaling molecules in disease progression of EAE. Autoimmune response observed in the EAE model is believed to be mediated via the Th1 pathway, and interferon-gamma (IFN-γ) is the hallmark cytokine of the Th1 immune response. Therefore, it is critical to examine the efficacy of the compounds in modulating the levels of cytokines in EAE mice. To this end, splenocytes isolated from the spleens of EAE mice were cultured and treated with exogenous MOG peptide and the amount of IFN-γ was measured in response to exogenous DA001 and DA021 (30 μM) treatments using ELISA.
(§1) The cells were cultured in RPMI 1640 medium supplement with 10% heat inactivated fetal bovine serum and penicillin/streptomycin, in the absence or presence of MOG (25 μg/mL, Ex) with or without DA001 or DA021 (30 μM, Ex). Supernatants were collected after 48 hrs and IFN-γ Quantikine ELISA assay kit (R and D systems) was used according to the manufacturer's protocol. The amount of IFN-γ was calculated based on the standard curve established during the assay. The graph presented is the composite of two separate trials with duplicate samples in each trial. ***=p≦0.0001, **=p≦0.001, *=p≦0.01.
as §1, with “Cells” for “The cells”, “μg/mL)” for “μg/mL, Ex)”, “DA001” for “DA001 or DA021”, “μM).” for “μM, Ex).”, “***=p≦0.0001. […]” for “***=p≦0.0001, **=p≦0.001, *=p≦0.01.”

Chain of EP4 receptor (P35408 whole entry): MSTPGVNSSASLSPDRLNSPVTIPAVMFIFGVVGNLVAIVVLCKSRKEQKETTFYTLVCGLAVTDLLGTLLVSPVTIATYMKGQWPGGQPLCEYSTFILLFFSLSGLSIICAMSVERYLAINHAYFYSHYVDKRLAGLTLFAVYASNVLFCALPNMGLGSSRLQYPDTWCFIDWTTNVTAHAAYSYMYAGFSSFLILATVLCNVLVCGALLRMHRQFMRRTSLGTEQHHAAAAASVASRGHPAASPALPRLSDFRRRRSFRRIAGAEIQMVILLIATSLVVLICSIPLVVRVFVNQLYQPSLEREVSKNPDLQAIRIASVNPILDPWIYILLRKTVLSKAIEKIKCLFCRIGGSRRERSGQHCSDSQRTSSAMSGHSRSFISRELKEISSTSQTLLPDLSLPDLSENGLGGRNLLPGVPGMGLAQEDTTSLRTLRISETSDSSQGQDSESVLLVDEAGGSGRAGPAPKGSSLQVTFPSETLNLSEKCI
Chain of TP receptor (P21731 whole entry): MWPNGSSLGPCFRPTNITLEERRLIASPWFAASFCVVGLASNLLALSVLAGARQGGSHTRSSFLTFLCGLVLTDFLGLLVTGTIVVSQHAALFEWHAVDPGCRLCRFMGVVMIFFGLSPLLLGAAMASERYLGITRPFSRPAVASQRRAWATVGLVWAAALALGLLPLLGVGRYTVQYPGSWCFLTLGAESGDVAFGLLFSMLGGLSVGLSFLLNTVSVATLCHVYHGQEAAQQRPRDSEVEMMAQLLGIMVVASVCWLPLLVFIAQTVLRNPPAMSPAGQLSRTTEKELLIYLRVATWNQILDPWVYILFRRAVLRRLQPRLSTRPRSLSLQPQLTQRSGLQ

`C=C(C)[C@@H]1CC[C@]2(C(=O)O)CC[C@]3(C)C(CC[C@@H]4[C@@]5(C)CC[C@H](O[C@@H]6OC[C@H](O)[C@H](O)[C@H]6O[C@@H]6O[C@@H](C)[C@H](O)[C@@H](O)[C@H]6O)[C@@](C)(CO)[C@@H]5CC[C@]43C)[C@@H]12` (stereo partly drawn) [DA001, 3-O-[α-L-rhamnopyranosyl-(1→2)-α-L-arabinopyranosyl]-3,23-dihydroxy-20(29)-lupen-28-oic acid] was tested, and the inhibition at 10 µM (TP receptor) was 17%, the “Agonist effect, cAMP measurement” value (EP4 receptor; EP4 receptor, 10 μM) was −11% and the “Antagonist effect, cAMP measurement” value (EP4 receptor; EP4 receptor, 10 μM) was 41%. The IC50 (EP4 receptor; inhibition of PGE2-induced cAMP increase, 6 concentrations, read-out: IC50, antagonist effect) was 20 µM, the “Reduction in IFN-γ, % Reduction” value [1] was 83.1% and the “IFN-γ, Average” value [1] was 105.7 ± 5.1 ρg/mL. The “level of IFN-γ” value [1] was 105 pg/mL, the “decrease of IFN-γ in response to exogenous compound” value [1] was 91% and the “reduction in the amount of MOG-induced IFN-γ” value [1] was 71%.
`C=C(C)[C@@H]1CC[C@]2(/C=N/O)CC[C@]3(C)C(CCC4[C@@]5(C)CCC(=O)[C@@](C)(CO)[C@@H]5CC[C@]43C)C12` (stereo partly shown) [DA021] was tested, and the inhibition at 10 µM (TP receptor) was 17%, the “Antagonist effect, cAMP measurement” value (EP4 receptor; EP4 receptor, 30 uM) was 18 and the “Reduction in IFN-γ, % Reduction” value [1] was 78.3%. The “IFN-γ, Average” value [1] was 135.3 ± 12.3 ρg/mL, the “level of IFN-γ” value [1] was 135 pg/mL and the “decrease of IFN-γ in response to exogenous compound” value [1] was 78%. For the same compound, the “reduction in the amount of MOG-induced IFN-γ” value [1] was 62%.
